# Settings: rat; liver microsomes; pH 7.4; 15.0 min; 1.0 µM
row,Structure (SMILES),half-life [min]
1,COc1cc(O)c([C@H](CC(=O)N2CC(C)CC(C)C2)c2ccc3c(c2)OCO3)c(OC)c1 (stereo partly drawn),3.3
2,NC(=O)c1cnc(N[C@@H]2CCCC[C@@H]2N)nc1Nc1cccc(-n2nccn2)c1,> 30
3,O=C(Nc1ccc(S(=O)(=O)Nc2nccs2)cc1)c1ccnc(-c2ccccc2)c1,> 30
4,COc1ccc(-c2nc(Nc3ccc(F)c(F)c3)c3ccccc3n2)cc1,> 30
5,Cc1ccc(S(=O)(=O)Nc2ccc(C(=O)Nc3nc(-c4ccccc4)cs3)cc2Cl)cc1,4
6,Cc1cc(C)c(C(=O)Nc2cccc([S+](=O)([O-])N3CCCCCC3)c2)[nH]1,1.7
7,O=C(N[C@@H](Cc1ccccc1)C(=O)CCl)OCc1ccccc1,14
8,Fc1ccc(Nc2nc(-c3ccncc3F)nc3ccccc23)cc1F,20
9,O=C(c1ccccc1)N1CCN(c2nc(-c3ccc(Br)cc3)cs2)CC1,> 30
10,C[C@@H]1COCCN1c1cc(C2(S(C)(=N)=O)CC2)nc(-c2ccnc3[nH]ccc23)n1 (stereo partly drawn),> 30
11,Brc1ccc(-c2csc(N3CCCCC3)n2)cc1,3.45
12,O=[S+]([O-])(Nc1ccc(N2CCNCC2)cc1)c1ccc(NCc2cccc(Cl)c2O)cc1,> 30
13,O=S(=O)(Nc1cccc(C(F)(F)F)c1)c1ccc(NS(=O)(=O)c2ccc3c(c2)OCCO3)cc1,20
14,Cc1cccc(S(=O)(=O)Nc2cnccc2C(=O)Nc2nc(-c3ccccc3)cs2)c1,6
15,O=C(Nc1ncnc2sc3c(c12)CCCCC3)c1ccco1,2.3
16,Cc1nc2ccc(NC(=O)c3cc(S(=O)(=O)N(C)c4ccccc4)ccc3Cl)cc2s1,1.55
17,NC(=O)C1CCN(c2nc(-c3ccc(OC(F)(F)F)cc3)cs2)CC1,7.66
18,C=CCc1cccc(CNc2ccc(S(=O)(=O)Nc3nccs3)cc2)c1O,19
19,c1ccc2c(Nc3ccc4nc[nH]c4c3)nc(-c3ccncc3)nc2c1,16
20,CN1CCN(c2ccc(Nc3nc(-c4ccncc4)nc4ccccc34)cc2F)CC1,8.8
21,CCOc1cc(=O)n2c(c1C(=O)Nc1cc(OC)c(Cl)cc1OC)CCCC2,> 30
22,Fc1ccc(Nc2nc(C3=CCNCC3)nc3ccccc23)cc1F,6.1
23,COc1ccc(C(=O)NC2CCN(c3cnn(CC4CC4)c(=O)c3)CC2)c(OC)n1,13.9
24,O=c1c2ccccc2nc2n1CCC2,> 30

row,Structure (SMILES),half-life [min]
1,COc1cccc(N2CCN(c3ncc4c(n3)CCN(Cc3ccc(Br)cc3)C4)CC2)c1,18.2
2,CC(=O)c1ccc(N2CCN(S(=O)(=O)c3ccc4c(c3)n(C)c(=O)n4C)CC2)cc1,> 30
3,CC(C)C(=O)N1CCc2ccc(OCc3nc(C(=O)N4CCCC4)co3)cc2C1c1cccc(F)c1 (stereo not drawn),2.43
4,CC(C)(C)C1CCc2c(sc(NC(=O)c3ccncc3)c2C(N)=O)C1 (stereo not drawn),> 30
5,O=C(O)[C@H]1O[C@H]1C(=O)O,14.7
6,Cc1cccc(CS(=O)(=O)c2ncc(Cl)c(C(=O)Nc3nc4ccc(F)cc4s3)n2)c1,1.43
7,Cc1nc(Sc2nnnn2C)c2c(-c3ccccc3)csc2n1,1.6
8,Cc1noc(C)c1C(=O)N1CCC2(CCCN(Cc3ccccc3)C2)CC1,7.2
9,Cc1ccc(S(=O)(=O)Nc2cncc(C(=O)Nc3nc(-c4ccccc4)cs3)c2)cc1,19
10,Cc1cc(C)c(C(=O)Nc2cccc([S+](=O)([O-])N3CCCCC3)c2)[nH]1,3
11,Cc1ccc(S(=O)(=O)n2cc(C(=O)Nc3ccc(-c4ccccc4)cc3)c3ccccc32)cc1,14
12,CNc1sc(-c2cccc3ccccc23)nc1C#N,12.9
13,O=[S+]([O-])(Nc1cccc2ccccc12)c1ccc(NCc2ccc(Cl)cc2O)cc1,5.4
14,NCC(=O)Nc1cccc(-c2nn3c(=O)cc(N4CCNCC4)nc3s2)c1,> 30
15,Cc1ccc(C(=O)Nc2ccc3oc(-c4cccnc4)nc3c2)cc1[N+](=O)[O-],13.2
16,CNc1oc(-c2cccc3ccccc23)nc1C(=O)Nc1cccc(C#N)c1,17
17,Cc1ccccc1-c1nc(NCc2cccs2)c2ccccc2n1,2.74
18,O=C(Nc1ccc(F)c(C(F)(F)F)c1)Nc1nnc(-c2ccncc2)s1,> 30
19,CCOC(=O)C1=C(C)NC(=O)CC1C(=O)Nc1cc(Cl)cc(Cl)c1 (stereo not drawn),6.1
20,Cc1cc(-c2nnc3n2CCCCC3)c(C)n1-c1ccc(F)cc1,3.2
21,O=S(=O)(c1ccccc1)N1CCCCC1CCc1ccccc1 (stereo not drawn),2.32
22,Cc1ccccc1C(=O)Nc1ccc2c(c1)CCCN2C(=O)c1cccs1,7.79
23,COc1cc(-c2cc3c(nc2-c2ccccc2)nc(C(=O)NC2CCN(C)CC2)n3C)ccn1,> 30
24,O=C(C1CC(=O)N(c2n[nH]c3ccccc23)C1)N1CCC(c2noc3cc(F)ccc23)CC1 (stereo not drawn),19.1

row,Structure (SMILES),half-life [min]
1,O=C(Nc1nc(-c2ccccc2)cs1)c1ccncc1NS(=O)(=O)c1ccccc1,13
2,CC(C)(C)C(=O)C(Oc1ccc(Cl)cc1)n1ccnc1 (stereo not drawn),> 30
3,O=C(c1cnc(N2CCCCC2)c2ccccc12)N1CCN(c2ccc(Cl)cc2)CC1,2.8
4,Nc1ncnc(N2CCc3ccccc32)c1[N+](=O)[O-],8.6
5,Cc1cc(-c2nnc3n2CCCCC3)c(C)n1-c1cccc(C(F)(F)F)c1,1.9
6,Cc1ccc(S(=O)(=O)Nc2cnccc2C(=O)Nc2nc(-c3ccc(Cl)c(Cl)c3)cs2)cc1,> 30
7,Nc1cc2nc3ccccc3oc-2cc1=O,8.63
8,N#Cc1nc(-c2cccc3ccccc23)oc1NCc1ccccc1,8.6
9,CNc1ncc(-c2cccc3ccccc23)o1,9.9
10,CC(=O)c1c(C)[nH]c(C(=O)Nc2cccc([S+](=O)([O-])Nc3ccccn3)c2)c1C,> 30
11,Cc1ccc(C(=O)Nc2cccc(C(F)(F)F)c2)cc1Nc1nc(-c2cccnc2)nc2c1cnn2C,> 30
12,O=C(c1ccco1)N1CCN(c2nc(-c3ccc(Br)cc3)cs2)CC1,> 30
13,COc1ccc(CN2CCNc3cc(Nc4ccccc4)ncc3C2)cc1,3.17
14,CSc1ccc(/C=C/c2nc3ccccc3n2S(=O)(=O)c2ccc(Br)cc2)cc1,6.3
15,CC(C)Nc1oc(-c2cccc3ccccc23)nc1C#N,24
16,O=C(Nc1ccc(S(=O)(=O)Nc2nccs2)cc1)c1ccncc1,> 30
17,Cc1cc(C)nc(N2CCCC(C(=O)NCCc3ccc(F)cc3)C2)n1 (stereo not drawn),1.6
18,Cc1nc(N2CCN(c3ccccn3)CC2)c2c(C)c(C(=O)Nc3ccc(F)cc3Cl)sc2n1,10.2
19,O=C(Nc1ccc2oc(-c3ccncc3)nc2c1)c1ccccc1Cl,> 30
20,O=S(=O)(Nc1nccs1)c1ccc(NCc2ccccc2)cc1,10
21,N#Cc1ccccc1Nc1ncc(-c2cccc3ccccc23)o1,5.8
22,CCOC(=O)c1c[nH]c2c3c(ccc2c1=O)CCCC3,20.4
23,NC(=O)C1CCN(c2nc(-c3ccccc3N)cs2)CC1,25.3

# Other lines, results leading:
row,half-life [min],Structure (SMILES)
1,> 30,O=C(O)c1ccc(O)c2ncc(N3CCCN(CCc4cccc5ccccc45)CC3)cc12
2,14,Cc1ccc(-c2cc(C(=O)Nc3cccc(S(=O)(=O)Nc4nccs4)c3)c3ccccc3n2)cc1C
3,> 30,CC(=O)Nc1cccc(-c2nc(-c3c(C)noc3C)cc3c2cc(-c2ccccc2)n3C)c1
4,22.2,CC1=NN(c2ccc(C(=O)O)cc2)C(=O)/C1=C/c1ccc(-c2cc(C)c(C)cc2[N+](=O)[O-])o1
5,8.45,COc1cc(C(=O)NC2CCCc3c2[nH]c2c(Cl)cccc32)cc(OC)c1OC (stereo not drawn)
6,> 30,COc1ccc(Cn2c(C(=O)O)c(CNCc3ccco3)c3ccc(C)cc32)cc1
7,2.4,Cc1ccc(S(=O)(=O)NCCC(=O)Nc2nc(-c3ccccc3)cs2)cc1
8,2.36,COc1ccc(NC2CCCN(C(=O)CCc3ccccc3F)C2)cc1 (stereo not drawn)
9,1.07,COc1cccc(CNC(=O)CCCn2nc(C)c3c(C)n(-c4ccc(C)cc4)nc3c2=O)c1OC
10,> 30,COc1cc2c(Oc3ccc(-c4cnc(Nc5ccc(F)cc5)n(C)c4=O)cc3F)ccnc2cc1OCCCN1CCOCC1
11,7.13,CCc1ccccc1Nc1ncnc2c1cnn2-c1ccc(Cl)cc1
12,3.2,Cc1noc(C)c1-c1ccc2ncnc(NCc3ccc4[nH]ccc4c3)c2c1
13,1.18,Cc1ccc(CN2C(=O)C(O)(CC(=O)c3ccc(C)cc3)c3ccccc32)cc1 (stereo not drawn)
14,1.7,CCN(c1ccccc1)S(=O)(=O)c1c(C)nc2scc(C)n2c1=O
15,> 30,Cc1cc(C)nc(NS(=O)(=O)c2ccc(NC(=S)NC(=O)COc3ccc(Br)cc3Cl)cc2)n1
16,> 30,Cc1ccc(-c2csc(Nc3ccc(S(=O)(=O)Nc4nccs4)cc3)n2)cc1C

row,half-life [min],Structure (SMILES)
1,> 30,CNCc1ccc(-c2cc(-c3nc(-c4ccc(S(=O)(=O)C(C)C)cc4)cnc3N)on2)cc1
2,2.2,Cc1nn(Cc2ccccc2Cl)c(C)c1CN(C)CC(O)COc1ccc(Cl)cc1 (stereo not drawn)
3,4.23,CCCCN1CCC[C@H]1CNC(=O)c1cc(C#N)c2ccccc2c1OC
4,1.8,COc1ccc(-c2ccc3nc(-c4ccc(SC)cc4)oc3c2)c(OC)c1OC
5,> 30,O=C(c1ccc2ncccc2c1)N1CCc2c(nc3cc[nH]n3c2=O)C1
6,4.33,CCCCOc1ccc(CNC(=O)c2cc3n(n2)CCCN(Cc2ccc(C)cc2)C3=O)cc1
7,> 30,COc1cc2ncnc(Oc3cccc(NC(=O)Nc4cc(C(C)(C)C(F)(F)F)on4)c3)c2cc1OC
8,5.5,Cc1ccccc1C(=O)N1CCc2cc(-c3ccnc(NC(=O)Cc4ccccc4)n3)ccc21
9,3.62,CC(C)(C)OC(=O)N1CCN(c2ccc(NCc3ccc(-c4ccc(C#N)cc4)o3)cc2)CC1
10,1.11,Cn1c(=O)c2c(-c3ccc(Cl)cc3)n(CCc3ccccc3)cc2n(C)c1=O
11,6.56,CCn1c(-c2nonc2N)nc2cnc(Oc3cccc(NC(=O)c4ccc(OCCN5CCOCC5)cc4)c3)cc21
12,12,COc1cccc(NC(=O)c2cc(-c3ccc(C)c(C)c3)nc3ccccc23)c1
13,1.6,COc1cccc(CNc2ccc(S(=O)(=O)Nc3cccs3)cc2)c1O
14,12,Cc1ccc(-c2cc(C(=O)Nc3cccc(S(N)(=O)=O)c3)c3ccccc3n2)cc1C
15,9.84,CC1=C(C(=O)Nc2ccc(Cl)cc2)C(c2ccccc2C)n2ncc(C(=O)Nc3ccc(C)cc3)c2N1 (stereo not drawn)
16,19,COc1cccc(CC(=O)Nc2nc(-c3ccc4c(c3)CCN4C(=O)c3ccccc3C)c(C)s2)c1

# Source: PubChem BioAssay AID1508591
